# Experimental data: ChEMBL document CHEMBL1201862, “PubChem BioAssay data set” (2004)
#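 Grown in 96-well plates, cells were treated for 48 hours with each compound at five concentrations. Insufficient inhibition: endpoint recorded as highest concentration tested. GI50 = concentration required for 50% inhibition of growth.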 Activity calls are given as the source filed them. Rule as the data show it: active = GI50 up to about 1.1 µM and inactive = higher.
# Assays:
# Experiment in all cases: inhibition of tumour cell growth, NCI panel, 48 h
# [1] = system: CAKI-1
# [2] = system: HOP-62
# [3] = system: MDA-N
# [4] = system: SNB-75
# [5] = system: 786-0
# [6] = system: SF-268
# [7] = system: MDA-MB-231
# [8] = system: UO-31
# [9] = system: A498
# [10] = system: SF-539
# [11] = system: MDA-MB-435
# [12] = system: SK-MEL-5
# [13] = system: LXFL 529
# [14] = system: UACC-62
# [15] = system: IGROV-1
# [16] = system: MCF7
# [17] = system: T47D
# [18] = system: SW-620
# [19] = system: DU-145
# [20] = system: SNB-19
# [21] = system: NCI-H226
# [22] = system: HOP-18
# [23] = system: DMS-273
# [24] = system: SK-MEL-28
# [25] = system: HT-29
# [26] = system: RPMI-8226
# [27] = system: BT-549
# [28] = system: COLO 205
# [29] = system: OVCAR-3
# [30] = system: EKVX
# [31] = system: PC-3
# [32] = system: RXF 631
# [33] = system: SK-MEL-2
# [34] = system: OVCAR-4
# [35] = system: A549
# [36] = system: KM12
# [37] = system: SR
# [38] = system: OVCAR-8
# [39] = system: MOLT-4
# [40] = system: NCI/ADR-RES
# [41] = system: SK-OV-3
# [42] = system: LOX IMVI
# [43] = system: CCRF-CEM
# [44] = system: HL-60
# [45] = system: XF498
# [46] = system: M14
# [47] = system: DLD-1
# [48] = system: U-251
# [49] = system: NCI-H522
# [50] = system: HOP-92
# [51] = system: SN12C
# [52] = system: NCI-H23
# [53] = system: OVCAR-5
# [54] = system: HCC 2998
# [55] = system: ACHN
# [56] = system: M19-MEL
# [57] = system: SF-295
# [58] = system: SNB-78
# [59] = system: DMS-114
# [60] = system: Malme-3M
# [61] = system: NCI-H460
# [62] = system: HCT-116
# [63] = system: TK-10
# [64] = system: HCT-15
# [65] = system: K562
# [66] = system: Hs-578T
# [67] = system: UACC-257
# [68] = system: RXF 393
smiles,measurement,setting,value
Cc1ccc(S(=O)(=O)SC(C)(C)C)cc1,GI50,[1],22.2 µM (inactive)
same,GI50,[2],> 60.3 µM (inactive)
same,GI50,[3],> 10 µM (inactive)
same,GI50,[4],> 63.5 µM (inactive)
same,GI50,[5],16.9 µM (inactive)
same,GI50,[6],45.5 µM (inactive)
same,GI50,[7],24.7 µM (inactive)
same,GI50,[8],> 100 µM (inactive)
same,GI50,[9],> 100 µM (inactive)
same,GI50,[10],32.1 µM (inactive)
same,GI50,[11],31.4 µM (inactive)
same,GI50,[12],46.1 µM (inactive)
same,GI50,[13],32.7 µM (inactive)
same,GI50,[14],19.9 µM (inactive)
same,GI50,[15],18.9 µM (inactive)
same,GI50,[16],19.2 µM (inactive)
same,GI50,[17],> 100 µM (inactive)
same,GI50,[18],22.2 µM (inactive)
same,GI50,[19],> 100 µM (inactive)
same,GI50,[20],> 100 µM (inactive)
same,GI50,[21],> 86.7 µM (inactive)
same,GI50,[22],> 100 µM (inactive)
same,GI50,[23],19.8 µM (inactive)
same,GI50,[24],48.4 µM (inactive)
same,GI50,[25],13.1 µM (inactive)
same,GI50,[26],15.3 µM (inactive)
same,GI50,[27],22.4 µM (inactive)
same,GI50,[28],47.6 µM (inactive)
same,GI50,[29],20.9 µM (inactive)
same,GI50,[30],> 45.8 µM (inactive)
same,GI50,[31],> 10 µM (inactive)
same,GI50,[32],> 100 µM (inactive)
same,GI50,[33],33.2 µM (inactive)
same,GI50,[34],22.2 µM (inactive)
same,GI50,[35],> 100 µM (inactive)
same,GI50,[36],45.2 µM (inactive)
same,GI50,[37],12.2 µM (inactive)
same,GI50,[38],21.3 µM (inactive)
same,GI50,[39],18.2 µM (inactive)
same,GI50,[40],32.6 µM (inactive)
same,GI50,[41],> 100 µM (inactive)
same,GI50,[42],21.9 µM (inactive)
same,GI50,[43],12.6 µM (inactive)
same,GI50,[44],18 µM (inactive)
same,GI50,[45],15.6 µM (inactive)
same,GI50,[46],31.6 µM (inactive)
same,GI50,[47],18.5 µM (inactive)
same,GI50,[48],> 100 µM (inactive)
same,GI50,[49],14.7 µM (inactive)
same,GI50,[50],63 µM (inactive)
same,GI50,[51],38.9 µM (inactive)
same,GI50,[52],11.2 µM (inactive)
same,GI50,[53],> 48.4 µM (inactive)
same,GI50,[54],> 43.5 µM (inactive)
same,GI50,[55],38.5 µM (inactive)
same,GI50,[56],33.8 µM (inactive)
same,GI50,[57],> 100 µM (inactive)
same,GI50,[58],51.2 µM (inactive)
same,GI50,[59],16.9 µM (inactive)
same,GI50,[60],> 44.4 µM (inactive)
same,GI50,[61],> 100 µM (inactive)
same,GI50,[62],17.6 µM (inactive)
same,GI50,[63],40.3 µM (inactive)
same,GI50,[64],23.4 µM
same,GI50,[65],19.9 µM (inactive)
same,GI50,[66],34.2 µM (inactive)
same,GI50,[67],21.6 µM (inactive)
c1cncc(O[Si](Oc2cccnc2)(Oc2cccnc2)Oc2cccnc2)c1,GI50,[1],> 100 µM (inactive)
same,GI50,[4],> 100 µM (inactive)
same,GI50,[8],> 100 µM (inactive)
same,GI50,[68],> 100 µM (inactive)
same,GI50,[10],> 100 µM (inactive)
same,GI50,[12],> 100 µM (inactive)
same,GI50,[14],> 100 µM (inactive)
same,GI50,[15],> 100 µM (inactive)
same,GI50,[18],> 100 µM (inactive)
same,GI50,[20],> 100 µM (inactive)
same,GI50,[21],> 100 µM (inactive)
same,GI50,[22],> 100 µM (inactive)
same,GI50,[23],> 100 µM (inactive)
same,GI50,[24],> 100 µM (inactive)
same,GI50,[25],> 100 µM (inactive)
same,GI50,[28],> 100 µM (inactive)
same,GI50,[29],> 100 µM (inactive)
same,GI50,[30],> 100 µM (inactive)
same,GI50,[32],> 100 µM (inactive)
same,GI50,[33],> 100 µM (inactive)
same,GI50,[34],> 100 µM (inactive)
same,GI50,[35],> 100 µM (inactive)
same,GI50,[36],> 100 µM (inactive)
same,GI50,[37],> 100 µM (inactive)
same,GI50,[38],> 100 µM (inactive)
same,GI50,[39],> 100 µM (inactive)
same,GI50,[41],> 100 µM (inactive)
same,GI50,[42],> 100 µM (inactive)
same,GI50,[45],> 100 µM (inactive)
same,GI50,[46],> 100 µM (inactive)
same,GI50,[47],> 100 µM (inactive)
same,GI50,[48],> 100 µM (inactive)
same,GI50,[51],> 100 µM (inactive)
same,GI50,[52],> 100 µM (inactive)
same,GI50,[53],> 100 µM (inactive)
same,GI50,[54],> 100 µM (inactive)
same,GI50,[56],> 100 µM (inactive)
same,GI50,[57],> 100 µM (inactive)
same,GI50,[58],> 100 µM (inactive)
same,GI50,[59],> 100 µM (inactive)
same,GI50,[60],> 100 µM (inactive)
same,GI50,[61],> 100 µM (inactive)
same,GI50,[63],> 100 µM (inactive)
same,GI50,[64],> 100 µM
same,GI50,[67],> 100 µM (inactive)
